In patent publication US9827235B2, “Pharmaceutical compositions comprising antibacterial agents” (WOCKHARDT LIMITED, priority 2013, dated 2017):
Where two headings read alike, the source gives them in different places.

Assays:
Assay type in all cases: cell-based
[1] = test system: clinical isolate of K. pneumoniae S 48 producing metallo beta-lactamases [SHV, TEM, NDM-1]; test: Time kill study; conditions: for Bacterial count: each agent at 8 mcg/ml, initial count 6.84 log CFU/ml
Procedure: (§1) Typically, freshly grown cultures were diluted to the required cell density (initial starting inoculum) in Cation adjusted Muller Hinton broth medium BD, USA). The antibacterial agents at the required concentrations were added into the culture-containing medium either alone or in combination. The samples were incubated under shaking condition (120 rpm) at 37° C. Enumeration of viable bacterial count was undertaken, every 2 hour, by diluting in normal saline and plating on to the Tryptic Soya Agar plates (BD, USA). The plates were incubated for 24 hours to arrive at the viable bacterial count. […] The decrease of 1 Log CFU/ml, after administration of combination of present invention, in comparison to initial bacterial count corresponds to 90% killing of bacteria. Similarly, 2 Log CFU/ml reductions corresponds to 99% killing of bacteria and 3 Log CFU/ml reductions is equal to 99.9% killing of bacteria.

[2] = test system: clinical isolate of K. pneumoniae B 88 producing metallo beta-lactamases [SHV, TEM, NDM-1]; test: Time kill study; conditions: for Bacterial count: each agent at 8 mcg/ml, initial count 6.18 log CFU/ml; for Change in bacterial count (in words): used alone at 8 mcg/ml, at the end of 6 hours
Procedure: as §1

E. coli S 330 = test: MIC on Muller Hinton Agar (CLSI); conditions: for MIC: Escherichia coli, S330, agent alone, enzymes NDM, read-out: MIC
Procedure: (§2) The antibacterial activity of combinations according to the invention was investigated against various bacterial strains. In a typical study, minimum inhibitory concentrations (MIC) were determined using Muller Hinton Agar (MHA) (BD, USA) according to Clinical and Laboratory Standards Institute (CLSI) recommendations, (Clinical and Laboratory Standards Institute (CLSI), Performance Standards for Antimicrobial Susceptibility Testing, 20th Informational Supplement, M 100-S20, Volume 30, No. 1, 2010). In short, the inocula were adjusted to deliver about 10^4 colony forming units (CFU) per spot with a multipoint inoculator (Applied Quality Services, UK). The plates were pored with doubling concentration range of the test combinations according to invention containing MHA. The plates were inoculated and were incubated at 35° C. for 18 hours.

E. coli S 30 = test: MIC on Muller Hinton Agar (CLSI); conditions: for MIC: enzymes CMY type, TEM
Procedure: as §2

P. aeruginosa Q-111 = test: MIC on Muller Hinton Agar (CLSI)
Procedure: as §2

P. aeruginosa S 513 = test: MIC on Muller Hinton Agar (CLSI)
Procedure: as §2

P. aeruginosa S 504 = test: MIC on Muller Hinton Agar (CLSI)
Procedure: as §2

[3] = test system: P. aeruginosa H 113720186; test: MIC on Muller Hinton Agar (CLSI); conditions: for MIC: enzymes IMP
Procedure: as §2

E. coli S 35 = test: MIC on Muller Hinton Agar (CLSI); conditions: for MIC: enzymes TEM
Procedure: as §2

K. pneumoniae S 50 = test: MIC on Muller Hinton Agar (CLSI); conditions: for MIC: enzymes SHV, TEM
Procedure: as §2

K. pneumoniae B 77 = test: MIC on Muller Hinton Agar (CLSI); conditions: for MIC: enzymes SHV, TEM
Procedure: as §2

K. pneumoniae M 3 = test: MIC on Muller Hinton Agar (CLSI); conditions: for MIC: enzymes SHV, CTXM, TEM
Procedure: as §2

K. pneumoniae S 48 = test: MIC on Muller Hinton Agar (CLSI); conditions: for MIC: enzymes SHV, TEM
Procedure: as §2

E. coli S 16 = test: MIC on Muller Hinton Agar (CLSI); conditions: for MIC: enzymes CMY type, TEM, DHA
Procedure: as §2

E. coli M 44 = test: MIC on Muller Hinton Agar (CLSI); conditions: for MIC: enzymes TEM
Procedure: as §2

E. coli S 33 = test: MIC on Muller Hinton Agar (CLSI); conditions: for MIC: enzymes TEM
Procedure: as §2

K. pneumoniae B 88 = test: MIC on Muller Hinton Agar (CLSI); conditions: for MIC: enzymes SHV, TEM
Procedure: as §2

P. aeruginosa S 508 = test: MIC on Muller Hinton Agar (CLSI)
Procedure: as §2

K. pneumoniae NCTC 13439 = test: MIC on Muller Hinton Agar (CLSI); conditions: for MIC: Klebsiella pneumoniae, NCTC13439, agent alone, enzymes VIM-1, read-out: MIC
Procedure: as §2

[4] = test system: highly resistant strains of E. coli, K. pneumonia and P. aeruginosa; test: MIC, summary over the strain panel; conditions: for MICs (range over the strains): agent alone
Procedure: as §2

[5] = Escherichia coli, S30, agent alone, NDM-1, read-out: MIC
[6] = Pseudomonas aeruginosa, Q111, agent alone, enzymes OXA-4, OXA-11, read-out: MIC
[7] = Pseudomonas aeruginosa, S513, agent alone, enzymes VIM-6, read-out: MIC
[8] = Pseudomonas aeruginosa, S504, agent alone, enzymes VIM-6, read-out: MIC
[9] = Pseudomonas aeruginosa, H113720186, agent alone, read-out: MIC
[10] = Escherichia coli, S35, agent alone, NDM-1, read-out: MIC
[11] = Klebsiella pneumoniae, S50, agent alone, NDM-1, read-out: MIC
[12] = Klebsiella pneumoniae, B77, agent alone, NDM-1, read-out: MIC
[13] = Klebsiella pneumoniae, M3, agent alone, NDM-1, read-out: MIC
[14] = Klebsiella pneumoniae, S48, agent alone, NDM-1, read-out: MIC
[15] = Escherichia coli, S16, agent alone, read-out: MIC
[16] = Escherichia coli, M44, agent alone, NDM-1, read-out: MIC
[17] = Escherichia coli, S33, agent alone, NDM-1, read-out: MIC
[18] = Klebsiella pneumoniae, B88, agent alone, NDM-1, read-out: MIC
[19] = Pseudomonas aeruginosa, S508, agent alone, enzymes VIM-11, read-out: MIC

Compound	Bacterial count ([1]; 2 hours)	Bacterial count ([1]; 4 hours)	Bacterial count ([1]; 6 hours)	MIC (E. coli S 330)	MIC (E. coli S 30; [5])	MIC (P. aeruginosa Q-111; [6])	MIC (P. aeruginosa S 513; [7])	MIC (P. aeruginosa S 504; [8])	MIC [3, 9]	MIC (E. coli S 35; [10])	MIC (K. pneumoniae S 50; [11])	MIC (K. pneumoniae B 77; [12])	MIC (K. pneumoniae M 3; [13])	MIC (K. pneumoniae S 48; [14])	MIC (E. coli S 16; [15])	MIC (E. coli M 44; [16])	MIC (E. coli S 33; [17])	MIC (K. pneumoniae B 88; [18])	MIC (P. aeruginosa S 508; [19])	MIC (K. pneumoniae NCTC 13439)	also measured
C[C@@H](O)[C@H]1C(=O)N2C(C(=O)O)=C(SCCN=CN)C[C@H]12 [Imipenem, imipenem]	7.38 Log CFU/ml	8.32 Log CFU/ml	8.81 Log CFU/ml	–	–	–	–	–	–	–	–	–	–	–	–	–	–	–	–	–	–
C[C@@H](O)[C@H]1C(=O)N2C(C(=O)O)=C(S[C@@H]3CN[C@H](C(=O)N(C)C)C3)[C@H](C)[C@H]12 [Meropenem, meropenem]	–	–	–	> 32 µg/mL	> 32 µg/mL	4 µg/mL	> 32 µg/mL	> 32 µg/mL	> 64 µg/mL	> 32 µg/mL	> 32 µg/mL	> 32 µg/mL	16 µg/mL	32 µg/mL	> 32 µg/mL	32 µg/mL	> 32 µg/mL	> 32 µg/mL	> 32 µg/mL	> 32 µg/mL	Bacterial count ([2]; 2 hours): 6.02 Log CFU/ml; Bacterial count ([2]; 4 hours): 6.3 Log CFU/ml; Bacterial count ([2]; 6 hours): 7.6 Log CFU/ml; Change in bacterial count (in words) [2]: no decrease in bacterial count was observed
NCC[C@H](O)C(=O)N[C@@H]1C[C@H](N)[C@@H](O[C@H]2O[C@H](CN)[C@@H](O)[C@H](O)[C@H]2O)[C@H](O)[C@H]1O[C@H]1O[C@H](CO)[C@@H](O)[C@H](N)[C@H]1O [Amikacin, amikacin]	–	–	–	> 64 µg/mL	> 64 µg/mL	16 µg/mL	> 32 µg/mL	> 32 µg/mL	> 32 µg/mL	> 64 µg/mL	> 64 µg/mL	> 64 µg/mL	4 µg/mL	> 64 µg/mL	> 64 µg/mL	> 64 µg/mL	> 64 µg/mL	> 64 µg/mL	> 32 µg/mL	> 64 µg/mL	–
O=C(NNC(=O)[C@@H]1CC[C@@H]2CN1C(=O)N2OS(=O)(=O)O)[C@@H]1CCCNC1 [Compound of Formula (I), (2S,5R)-sulphuric acid mono-[2-(N′—[(R)-piperidin-3-carbonyl]-hydrazinocarbonyl)-7-oxo-1,6-diaza-bicyclo[3.2.1]oct-6-yl] ester]	7.27 Log CFU/ml	7.04 Log CFU/ml	7.45 Log CFU/ml	0.12 µg/mL	0.25 µg/mL	4 µg/mL	8 µg/mL	8 µg/mL	8 µg/mL	0.25 µg/mL	0.5 µg/mL	> 32 µg/mL	0.5 µg/mL	0.5 µg/mL	0.25 µg/mL	0.12 µg/mL	0.25 µg/mL	> 32 µg/mL	8 µg/mL	> 32 µg/mL	Bacterial count ([2]; 2 hours): 6.4 Log CFU/ml; Bacterial count ([2]; 4 hours): 6.08 Log CFU/ml; Bacterial count ([2]; 6 hours): 6.28 Log CFU/ml; Change in bacterial count (in words) [2]: no decrease in bacterial count was observed; Change in bacterial count (in words) ([1]; used alone at 8 mcg/ml, at the end of 6 hours): no decrease in bacterial count was observed; MICs (range over the strains) ([4]; most strains of E. coli and K. pneumoniae): 0.1 to 0.5 µg/mL
colistin	–	–	–	–	–	–	–	–	–	–	–	–	–	–	–	–	–	–	–	–	MICs (range over the strains) ([4]; resistant strains of E. coli, K. pneumonia and P. aeruginosa): 0.5 to 2 µg/mL; MIC (E. coli S 30; agent alone, NDM-1): 0.5 µg/mL; MIC (P. aeruginosa Q-111; agent alone, enzymes OXA-4, OXA-11): 2 µg/mL; MIC (P. aeruginosa S 513; agent alone, enzymes VIM-6): 2 µg/mL; MIC (P. aeruginosa S 504; agent alone, enzymes VIM-6): 2 µg/mL; MIC ([3]; agent alone): 2 µg/mL; MIC (E. coli S 35; agent alone, NDM-1): 1 µg/mL; MIC (K. pneumoniae S 50; agent alone, NDM-1): 1 µg/mL; MIC (K. pneumoniae B 77; agent alone, NDM-1): 1 µg/mL; MIC (K. pneumoniae M 3; agent alone, NDM-1): 1 µg/mL; MIC (K. pneumoniae S 48; agent alone, NDM-1): 1 µg/mL; MIC (E. coli S 16; agent alone): 1 µg/mL; MIC (E. coli M 44; agent alone, NDM-1): 1 µg/mL; MIC (E. coli S 33; agent alone, NDM-1): 1 µg/mL; MIC (K. pneumoniae B 88; agent alone, NDM-1): 1 µg/mL; MIC (P. aeruginosa S 508; agent alone, enzymes VIM-11): 2 µg/mL
CC(C)(O/N=C(\C(=O)N[C@@H]1C(=O)N2C(C(=O)[O-])=C(C[n+]3ccccc3)CS[C@H]12)c1csc(N)n1)C(=O)O [ceftazidine, ceftazidime]	–	–	–	–	–	–	–	–	–	–	–	–	–	–	–	–	–	–	–	–	MIC values of ceftazidime in presence of avibactam ([4]; with avibactam at 4 mcg/ml, in most of the cases): more than 16 mcg/ml; MIC (mcg/ml) of ceftazidine in presence of avibactam (4 mcg/ml) (E. coli S 330; with avibactam at 4 mcg/ml): >16 µg/mL; MIC (mcg/ml) of ceftazidine in presence of avibactam (4 mcg/ml) (E. coli S 30; with avibactam at 4 mcg/ml): >16 µg/mL; MIC (mcg/ml) of ceftazidine in presence of avibactam (4 mcg/ml) (P. aeruginosa Q-111; with avibactam at 4 mcg/ml): 32 µg/mL; MIC (mcg/ml) of ceftazidine in presence of avibactam (4 mcg/ml) (P. aeruginosa S 513; with avibactam at 4 mcg/ml): >16 µg/mL; MIC (mcg/ml) of ceftazidine in presence of avibactam (4 mcg/ml) (P. aeruginosa S 504; with avibactam at 4 mcg/ml): >16 µg/mL; MIC (mcg/ml) of ceftazidine in presence of avibactam (4 mcg/ml) ([3]; with avibactam at 4 mcg/ml): >32 µg/mL; MIC (mcg/ml) of ceftazidine in presence of avibactam (4 mcg/ml) (E. coli S 35; with avibactam at 4 mcg/ml): >16 µg/mL; MIC (mcg/ml) of ceftazidine in presence of avibactam (4 mcg/ml) (K. pneumoniae S 50; with avibactam at 4 mcg/ml): >16 µg/mL; MIC (mcg/ml) of ceftazidine in presence of avibactam (4 mcg/ml) (K. pneumoniae B 77; with avibactam at 4 mcg/ml): >16 µg/mL; MIC (mcg/ml) of ceftazidine in presence of avibactam (4 mcg/ml) (K. pneumoniae M 3; with avibactam at 4 mcg/ml): >16 µg/mL; MIC (mcg/ml) of ceftazidine in presence of avibactam (4 mcg/ml) (K. pneumoniae S 48; with avibactam at 4 mcg/ml): >16 µg/mL; MIC (mcg/ml) of ceftazidine in presence of avibactam (4 mcg/ml) (E. coli S 16; with avibactam at 4 mcg/ml): >16 µg/mL; MIC (mcg/ml) of ceftazidine in presence of avibactam (4 mcg/ml) (E. coli M 44; with avibactam at 4 mcg/ml): >16 µg/mL; MIC (mcg/ml) of ceftazidine in presence of avibactam (4 mcg/ml) (E. coli S 33; with avibactam at 4 mcg/ml): >16 µg/mL; MIC (mcg/ml) of ceftazidine in presence of avibactam (4 mcg/ml) (K. pneumoniae B 88; with avibactam at 4 mcg/ml): >16 µg/mL; MIC (mcg/ml) of ceftazidine in presence of avibactam (4 mcg/ml) (P. aeruginosa S 508; with avibactam at 4 mcg/ml): >16 µg/mL; MIC (mcg/ml) of ceftazidine in presence of avibactam (4 mcg/ml) (K. pneumoniae NCTC 13439; with avibactam at 4 mcg/ml): >16 µg/mL
